Experimental data from US11278503B2, “Pharmaceutical compositions comprising semifluorinated alkanes for the treatment of contact lense-related conditions” (NOVALIQ GMBH, priority 2017, dated 2022).

Assay: Physical properties of the semifluorinated alkanes stated in the description
Format: physicochemical
Conditions: for refractive index: at 20° C.; for density: at 25° C.

Q: What does the source list for `CCCCCC(F)(F)C(F)(F)C(F)(F)C(F)(F)F` [F4H5, 1-perfluorobutyl-pentane]?
A: chemical and physiological inertness (in words): chemically and physiologically inert; solubility in water (in words): water-insoluble; refractive index: 1.3204; density: 1.284 g/mL

Q: For `CCCCCCCCC(F)(F)C(F)(F)C(F)(F)C(F)(F)C(F)(F)C(F)(F)F` [F6H8, 1-perfluorohexyl-octane], which “chemical and physiological inertness (in words)” value is on record?
A: chemically and physiologically inert

Q: What about the “solubility in water (in words)” value of the same compound?
A: water-insoluble

Q: And the refractive index?
A: 1.3432

Q: What about the density of the same compound?
A: 1.35 g/mL
